Experiment: recombinant barcode read abundance after kanamycin selection (control-corrected) (log10(CPM+1)); higher = more efficient recombination; sequences stand for … in AGTGCAGAGAAAATCGGCCAGTTTTCTCTGCCTGCAGTCCGCATGCCGT…AGATTTATGCAGCGGACTGCCTTTCTCCCAAAGTGATAAACCGGACAGTATCATGGACCGGTTTTCCCGGTAATCCGTATTTGCAAGGTTGGTTTCACT; site = the 11-nt target
Procedure, shortened: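 A promoter, a target, a barcode and the first 104 bridge RNA bases under J23119 made up each oligo. Oligos were Gibson-cloned into a vector bearing the other 73 bp and a T7-inducible recombinase, then co-electroporated into E. coli with a donor plasmid and plated in duplicate on chloramphenicol/ampicillin LB agar (control) or chloramphenicol/ampicillin/kanamycin with 0.1 mM IPTG. Recombination efficiency is the averaged, control-corrected counts per million of recombinant-junction barcodes. Reported values are log10(CPM+1).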
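Further: IS621 recombinase and bridge RNA in Escherichia coli cells.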

Sequence	recombinant barcode read abundance (log10)
TGGTACCCTTGGGTTCTAACCTGTTGCTA (site TGGTACCCTTA)	1.36
TGGTAGTCTTGGGTTCTAACCTGTTGCGT (site AAAGCTACTTA)	0.0198
TGGTAGTCTTGGGTTCTAACCTGTTGCGT (site TGGTAGTCTAC)	2.57
TGGTATACTTGGGTTCTAACCTGTTGCCT (site TGGTATACTAG)	0.241
TGGTATACTTGGGTTCTAACCTGTTGCCT (site TGGTATCCTAG)	0.0279
TGGTATACTTGGGTTCTAACCTGTTGCCT (site TGGTATGCTAG)	0.183
TGGTATACTTGGGTTCTAACCTGTTGCCT (site TGGTATTCTAG)	0.122
TGGTGTGCTTGGGTTCTAACCTGTTGCCA (site TAGTGTCCTTG)	0.0537
TGGTGTGCTTGGGTTCTAACCTGTTGCCA (site TGGTGTGCTTG)	0.267
TGTAAGGCTTGGGTTCTAACCTGTTGCTT (site TGTAAGACTCA)	0.142
TGTAAGGCTTGGGTTCTAACCTGTTGCTT (site TGTAAGGCTAA)	0.27
TGTAATCCTTGGGTTCTAACCTGTTGCCT (site TGTAATACTAG)	0.327
TGTAATCCTTGGGTTCTAACCTGTTGCCT (site TGTAATCCTAG)	0.025
TGTAATCCTTGGGTTCTAACCTGTTGCCT (site TGTAATGCTAG)	0.032
TGTAATCCTTGGGTTCTAACCTGTTGCCT (site TGTAATTCTAG)	0.0105
TGTAATGCTTGGGTTCTAACCTGTTGCCT (site TGTAATACTAG)	0.0123
TGTAATGCTTGGGTTCTAACCTGTTGCCT (site TGTAATCCTAG)	0.181
TGTAATGCTTGGGTTCTAACCTGTTGCCT (site TGTAATGCTAG)	0.912
TGTAATGCTTGGGTTCTAACCTGTTGCCT (site TGTAATTCTAG)	0.181
TGTAATTCTTGGGTTCTAACCTGTTGCCT (site TGTAATACTAG)	0.139
TGTAATTCTTGGGTTCTAACCTGTTGCCT (site TGTAATCCTAG)	0.0849
TGTAATTCTTGGGTTCTAACCTGTTGCCT (site TGTAATGCTAG)	0

Sequence	recombinant barcode read abundance (log10)
TGTAATTCTTGGGTTCTAACCTGTTGCCT (site TGTAATTCTAG)	0.18
TGTCAAACTTGGGTTCTAACCTGTTGCGT (site TGTCAAACTAC)	0.838
TGTCAAACTTGGGTTCTAACCTGTTGCGT (site TGTCAACCTAC)	0.0278
TGTCGAGCTTGGGTTCTAACCTGTTGCCG (site TGTAGAGCTCG)	0.0366
TGTCGAGCTTGGGTTCTAACCTGTTGCCG (site TGTCGAGCTCG)	0.107
TGTCGAGCTTGGGTTCTAACCTGTTGCCG (site TGTGGAGCTCG)	0.0604
TGTCGAGCTTGGGTTCTAACCTGTTGCCG (site TGTTGAGCTCG)	0.106
TGTCGCTCTTGGGTTCTAACCTGTTGCCT (site TGACGCTCTAG)	0.0464
TGTCGCTCTTGGGTTCTAACCTGTTGCCT (site TGCCGCTCTAG)	0.0379
TGTCGCTCTTGGGTTCTAACCTGTTGCCT (site TGGCGCTCTAG)	0.129
TGTCGCTCTTGGGTTCTAACCTGTTGCCT (site TGTCGCTCTAG)	1.1
TGTCGGACTTGGGTTCTAACCTGTTGCAA (site TGTCGGACTAT)	0.146
TGTCGGACTTGGGTTCTAACCTGTTGCAA (site TGTCGGACTCT)	0.149
TGTCGGACTTGGGTTCTAACCTGTTGCAA (site TGTCGGACTGT)	0.0423
TGTCGGACTTGGGTTCTAACCTGTTGCAA (site TGTCGGACTTT)	0.421
TGTCGGACTTGGGTTCTAACCTGTTGCAT (site TGTCGGACTAT)	1.32
TGTCGGACTTGGGTTCTAACCTGTTGCAT (site TGTCGGACTCT)	0.18
TGTCGGACTTGGGTTCTAACCTGTTGCAT (site TGTCGGACTGT)	0.0199
TGTCGGACTTGGGTTCTAACCTGTTGCAT (site TGTCGGACTTT)	0.0384
TGTCTACCTTGGGTTCTAACCTGTTGCTA (site TGTCTACCTTA)	0.103
TGTCTACCTTGGGTTCTAACCTGTTGCTA (site TGTCTCCCTAA)	0.209
TGTCTCCCTTGGGTTCTAACCTGTTGCGT (site GAAGAGGCTTG)	0.154

Sequence	recombinant barcode read abundance (log10)
TGTCTCCCTTGGGTTCTAACCTGTTGCGT (site TGTCTCCCTAC)	1.04
TGTCTGTCTTGGGTTCTAACCTGTTGCTT (site TGTCTGTCTAA)	0.186
TGTCTGTCTTGGGTTCTAACCTGTTGCTT (site TGTCTGTCTTA)	0.0372
TGTGACTCTTGGGTTCTAACCTGTTGCCT (site TGAGACTCTAG)	0.088
TGTGACTCTTGGGTTCTAACCTGTTGCCT (site TGCGACTCTAG)	0.0199
TGTGACTCTTGGGTTCTAACCTGTTGCCT (site TGGGACTCTAG)	0.0547
TGTGACTCTTGGGTTCTAACCTGTTGCCT (site TGTGACTCTAG)	0.912
TGTGAGCCTTGGGTTCTAACCTGTTGCGA (site CTGCGCTCTAT)	0.0373
TGTGAGCCTTGGGTTCTAACCTGTTGCGA (site TGTGAGCCTTC)	0.748
TGTGCACCTTGGGTTCTAACCTGTTGCAC (site TGTGCACCTGT)	0.32
TGTGCACCTTGGGTTCTAACCTGTTGCAC (site TGTGCTCCTCT)	0.0746
TGTGCGACTTGGGTTCTAACCTGTTGCAC (site TGAGCTACTGT)	0.0835
TGTGCGACTTGGGTTCTAACCTGTTGCAC (site TGTGCGACTGT)	0.0665
TGTGCGTCTTGGGTTCTAACCTGTTGCCT (site AGTGCGTCTAG)	0.0921
TGTGCGTCTTGGGTTCTAACCTGTTGCCT (site CGTGCGTCTAG)	0.136
TGTGCGTCTTGGGTTCTAACCTGTTGCCT (site GGTGCGTCTAG)	0.0172
TGTGCGTCTTGGGTTCTAACCTGTTGCCT (site TGTGCGTCTAG)	0.801
TGTGCTACTTGGGTTCTAACCTGTTGCAC (site GACCTATCTAG)	0.327
TGTGCTACTTGGGTTCTAACCTGTTGCAC (site TGTGCTACTGT)	0.0867
TGTGCTCCTTGGGTTCTAACCTGTTGCAG (site TGTGCACCTGT)	0.294
TGTGCTCCTTGGGTTCTAACCTGTTGCAG (site TGTGCTCCTCT)	0.113
TGTGTCTCTTGGGTTCTAACCTGTTGCGT (site TCTGTCTCTAG)	0.363

Sequence	recombinant barcode read abundance (log10)
TGTGTCTCTTGGGTTCTAACCTGTTGCGT (site TGTGTCTCTAC)	2.63
TGTTGAGCTTGGGTTCTAACCTGTTGCCG (site TGTAGAGCTCG)	0.09
TGTTGAGCTTGGGTTCTAACCTGTTGCCG (site TGTCGAGCTCG)	0.192
TGTTGAGCTTGGGTTCTAACCTGTTGCCG (site TGTGGAGCTCG)	0.258
TGTTGAGCTTGGGTTCTAACCTGTTGCCG (site TGTTGAGCTCG)	0.554
TGTTGTTCTTGGGTTCTAACCTGTTGCCT (site GGTTGTTCTAG)	0.0142
TGTTGTTCTTGGGTTCTAACCTGTTGCCT (site TGTTGTTCTAG)	0.0851
TGTTTAACTTGGGTTCTAACCTGTTGCCT (site TGGTTACCTAG)	0.126
TGTTTAACTTGGGTTCTAACCTGTTGCCT (site TGTTTAACTAG)	0.0368
TTAAAACCTTGGGTTCTAACCTGTTGCCT (site ATAAAACCTAG)	0.0421
TTAAAACCTTGGGTTCTAACCTGTTGCCT (site CTAAAACCTAG)	0.0966
TTAAAACCTTGGGTTCTAACCTGTTGCCT (site GTAAAACCTAG)	0.06
TTAAAACCTTGGGTTCTAACCTGTTGCCT (site TTAAAACCTAG)	0.751
TTAACTACTTGGGTTCTAACCTGTTGCTT (site TTAACTACTAA)	0.0821
TTAACTACTTGGGTTCTAACCTGTTGCTT (site TTAACTACTCA)	0.233
TTAACTACTTGGGTTCTAACCTGTTGCTT (site TTAACTACTGA)	0.294
TTAACTACTTGGGTTCTAACCTGTTGCTT (site TTAACTACTTA)	0.0225
TTAAGCCCTTGGGTTCTAACCTGTTGCCT (site TTAAGACCTAG)	0.288
TTAAGCCCTTGGGTTCTAACCTGTTGCCT (site TTAAGCCCTAG)	1.41
TTAAGCTCTTGGGTTCTAACCTGTTGCCT (site ATAAGCTCTAG)	0.125

From the supplement of paper PMC11208160
